Like-named read-outs stand apart in the source and are kept apart here.
Target: His-tagged recombinant human Gal-3 (hGal-3) (Homo sapiens (Human), UniProt P17931)
Experiment: Gal-3 HTRF assay (His-tagged hGal-3 binding to B-ASF);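 further: compounds preincubated 30 min with hGal-3, then 1 h with B-ASF, detection via terbium anti-His antibody and streptavidin d2. Control with B-ASF counts as full signal, omitting B-ASF as background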
[1] = HTRF, hGal-3 15 nM, B-ASF 15 nM, read-out: hGal-3 IC50

His-tagged recombinant human Gal-3 (hGal-3), sequence (P17931 whole entry): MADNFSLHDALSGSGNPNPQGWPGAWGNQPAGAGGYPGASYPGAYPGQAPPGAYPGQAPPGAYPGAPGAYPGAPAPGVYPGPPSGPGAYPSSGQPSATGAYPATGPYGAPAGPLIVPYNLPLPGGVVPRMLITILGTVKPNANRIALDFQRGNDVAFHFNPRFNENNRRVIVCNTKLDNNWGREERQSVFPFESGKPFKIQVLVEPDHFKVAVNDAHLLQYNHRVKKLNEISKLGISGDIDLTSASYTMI

Row | Compound | IC50 (read-out: hGal3 IC50) [nM] | IC50 [1] [nM]
1 | CO[C@@H]1[C@@H](n2cc(-c3cc(F)c(F)c(F)c3)nn2)[C@@H](O)[C@@H](CO)O[C@H]1c1nncn1-c1ccc(Cl)c(Cl)c1 [Ex 283] | 80 | –
2 | Cn1nccc1[C@@H]1O[C@H](CO)[C@H](O)[C@H](n2cc(-c3cc(F)c(F)c(F)c3)nn2)[C@H]1O [Ex 286] | 10000 | –
3 | OC[C@H]1O[C@@H](c2oncc2-c2cccc(Cl)c2)[C@H](O)[C@@H](n2cc(-c3cc(F)c(F)c(F)c3)nn2)[C@H]1O [Ex 289] | 8100 | –
4 | OC[C@H]1O[C@@H](n2nncc2-c2ccccc2)[C@H](O)[C@@H](n2cc(-c3cc(F)c(F)c(F)c3)nn2)[C@H]1O [Example 3] | – | 617
5 | OC[C@H]1O[C@@H](n2nncc2-c2ccc3c(c2)OCO3)[C@H](O)[C@@H](n2cc(-c3cc(F)c(F)c(F)c3)nn2)[C@H]1O [Example 4] | – | 386
6 | OC[C@H]1O[C@@H](n2nncc2-c2ccc3[nH]ncc3c2)[C@H](O)[C@@H](n2cc(-c3cc(F)c(F)c(F)c3)nn2)[C@H]1O [Example 5] | – | 640
7 | OC[C@H]1O[C@@H](n2nncc2-c2ccc3cn[nH]c3c2)[C@H](O)[C@@H](n2cc(-c3cc(F)c(F)c(F)c3)nn2)[C@H]1O [Example 6] | – | 494
8 | OC[C@H]1O[C@@H](n2nncc2-c2ccc(Cl)cc2)[C@H](O)[C@@H](n2cc(-c3cc(F)c(F)c(F)c3)nn2)[C@H]1O [Example 7] | – | 329
9 | Cc1nc2ccc(-c3cnnn3[C@@H]3O[C@H](CO)[C@H](O)[C@H](n4cc(-c5cc(F)c(F)c(F)c5)nn4)[C@H]3O)cc2s1 [Example 8] | – | 158
10 | COc1cccc(-c2cnnn2[C@@H]2O[C@H](CO)[C@H](O)[C@H](n3cc(-c4cc(F)c(F)c(F)c4)nn3)[C@H]2O)c1 [Example 9] | – | 158
11 | CC(C)(C)c1cnnn1[C@@H]1O[C@H](CO)[C@H](O)[C@H](n2cc(-c3cc(F)c(F)c(F)c3)nn2)[C@H]1O [Example 10] | – | 366
12 | O=C(O)c1nnn([C@@H]2O[C@H](CO)[C@H](O)[C@H](n3cc(-c4cc(F)c(F)c(F)c4)nn3)[C@H]2O)c1-c1ccc(Cl)c(Cl)c1 [Example 11] | – | 184
13 | CCO[C@@H]1[C@@H](n2cc(-c3cc(F)c(F)c(F)c3)nn2)[C@@H](O)[C@@H](CO)O[C@H]1n1nncc1-c1cccc(Cl)c1 [Example 12, (2R,3R,4S,5R,6R)-6-(5-(3-chlorophenyl)-1H-1,2,3-triazol-1-yl)-5-ethoxy-2-(hydroxymethyl)-4-(4-(3,4,5-trifluorophenyl)-1H-1,2,3-triazol-1-yl)tetrahydro-2H-pyran-3-ol] | – | 970
14 | COCCO[C@@H]1[C@@H](n2cc(-c3cc(F)c(F)c(F)c3)nn2)[C@@H](O)[C@@H](CO)O[C@H]1n1nncc1-c1cccc(Cl)c1 [Example 13] | – | 571
15 | O=C(O)CO[C@@H]1[C@@H](n2cc(-c3cc(F)c(F)c(F)c3)nn2)[C@@H](O)[C@@H](CO)O[C@H]1n1nncc1-c1cccc(Cl)c1 [Example 14] | – | 8430
16 | OC[C@H]1O[C@@H](n2nncc2-c2ccc(Cl)c(Cl)c2)C[C@@H](n2cc(-c3cc(F)c(F)c(F)c3)nn2)[C@H]1O [Example 15, (2R,3R,4R,6R)-6-(5-(3,4-dichlorophenyl)-1H-1,2,3-triazol-1-yl)-2-(hydroxymethyl)-4-(4-(3,4,5-trifluorophenyl)-1H-1,2,3-triazol-1-yl)tetrahydro-2H-pyran-3-ol] | – | 880
17 | COc1cccc(-c2cnnn2[C@H]2C[C@@H](n3cc(-c4cc(F)c(F)c(F)c4)nn3)[C@@H](O)[C@@H](CO)O2)c1 [Example 16] | – | 609
18 | OC[C@H]1O[C@@H](n2nncc2-c2ccccc2)C[C@@H](n2cc(-c3cc(F)c(F)c(F)c3)nn2)[C@H]1O [Example 17] | – | 902
19 | OC[C@H]1O[C@@H](n2nncc2-c2cccc(Cl)c2)[C@H](F)[C@@H](n2cc(-c3cc(F)c(F)c(F)c3)nn2)[C@H]1O [Example 18, (2R,3R,4S,5R,6R)-6-(5-(3-chlorophenyl)-1H-1,2,3-triazol-1-yl)-5-fluoro-2-(hydroxymethyl)-4-(4-(3,4,5-trifluorophenyl)-1H-1,2,3-triazol-1-yl)tetrahydro-2H-pyran-3-ol] | – | 1040
20 | OC[C@H]1O[C@@H](c2ncnn2-c2ccc3nc(N4CCOCC4)sc3c2)[C@H](O)[C@@H](n2cc(-c3cc(F)c(F)c(F)c3)nn2)[C@H]1O [Example 50] | – | 120
21 | O=C(O)CO[C@@H]1[C@@H](n2cc(-c3cc(F)c(F)c(F)c3)nn2)[C@@H](O)[C@@H](CO)O[C@H]1c1ncnn1-c1cccc(Cl)c1 [Example 53, 2-(((2S,3R,4S,5R,6R)-2-(1-(3-chlorophenyl)-1H-1,2,4-triazol-5-yl)-5-hydroxy-6-(hydroxymethyl)-4-(4-(3,4,5-trifluorophenyl)-1H-1,2,3-triazol-1-yl)tetrahydro-2H-pyran-3-yl)oxy)acetic acid] | – | 23
22 | CCO[C@@H]1[C@@H](n2cc(-c3cc(F)c(F)c(F)c3)nn2)[C@@H](O)[C@@H](CO)O[C@H]1c1ncnn1-c1cccc(Cl)c1 [Example 55] | – | 157

The next lines start with the values.

Row | IC50 (read-out: hGal3 IC50) [nM] | IC50 [1] [nM] | Compound
23 | – | 708 | OC[C@H]1O[C@@H](c2ncnn2-c2ccccc2)[C@H](O)[C@@H](n2cc(-c3cc(F)c(F)c(F)c3)nn2)[C@H]1O [Example 20]
24 | – | 79 | OC[C@H]1O[C@@H](c2ncnn2-c2ccc(Cl)c(Cl)c2)[C@H](O)[C@@H](n2cc(-c3cc(F)c(F)c(F)c3)nn2)[C@H]1O [Example 21]
25 | – | 1110 | OC[C@H]1O[C@@H](c2ncnn2Cc2cccc(Cl)c2)[C@H](O)[C@@H](n2cc(-c3cc(F)c(F)c(F)c3)nn2)[C@H]1O [Example 22]
26 | – | 150 | COc1cccc(-n2ncnc2[C@@H]2O[C@H](CO)[C@H](O)[C@H](n3cc(-c4cc(F)c(F)c(F)c4)nn3)[C@H]2O)c1 [Example 23]
27 | – | 480 | OC[C@H]1O[C@@H](c2ncnn2-c2ccccc2Cl)[C@H](O)[C@@H](n2cc(-c3cc(F)c(F)c(F)c3)nn2)[C@H]1O [Example 24]
28 | – | 560 | OC[C@H]1O[C@@H](c2ncnn2-c2ccc(C(F)(F)F)cc2)[C@H](O)[C@@H](n2cc(-c3cc(F)c(F)c(F)c3)nn2)[C@H]1O [Example 25]
29 | – | 230 | Cc1cccc(-n2ncnc2[C@@H]2O[C@H](CO)[C@H](O)[C@H](n3cc(-c4cc(F)c(F)c(F)c4)nn3)[C@H]2O)c1 [Example 26]
30 | – | 1470 | OC[C@H]1O[C@@H](c2ncnn2Cc2ccccc2)[C@H](O)[C@@H](n2cc(-c3cc(F)c(F)c(F)c3)nn2)[C@H]1O [Example 28]
31 | – | 1560 | OC[C@H]1O[C@@H](c2ncnn2-c2c(F)cccc2F)[C@H](O)[C@@H](n2cc(-c3cc(F)c(F)c(F)c3)nn2)[C@H]1O [Example 29]
32 | – | 1040 | O=C(O)c1cccc(-n2ncnc2[C@@H]2O[C@H](CO)[C@H](O)[C@H](n3cc(-c4cc(F)c(F)c(F)c4)nn3)[C@H]2O)c1 [Example 31]
33 | – | 590 | O=C(O)c1ccc(-n2ncnc2[C@@H]2O[C@H](CO)[C@H](O)[C@H](n3cc(-c4cc(F)c(F)c(F)c4)nn3)[C@H]2O)cc1 [Example 32]
34 | – | 790 | O=C(O)c1ccccc1-n1ncnc1[C@@H]1O[C@H](CO)[C@H](O)[C@H](n2cc(-c3cc(F)c(F)c(F)c3)nn2)[C@H]1O [Example 33]
35 | – | 700 | O=[N+]([O-])c1cccc(-n2ncnc2[C@@H]2O[C@H](CO)[C@H](O)[C@H](n3cc(-c4cc(F)c(F)c(F)c4)nn3)[C@H]2O)c1 [Example 35]
36 | – | 220 | OC[C@H]1O[C@@H](c2ncnn2-c2cccc(C(F)(F)F)c2)[C@H](O)[C@@H](n2cc(-c3cc(F)c(F)c(F)c3)nn2)[C@H]1O [Example 36]
37 | – | 210 | OC[C@H]1O[C@@H](c2ncnn2-c2cc(F)cc(F)c2)[C@H](O)[C@@H](n2cc(-c3cc(F)c(F)c(F)c3)nn2)[C@H]1O [Example 37]
38 | – | 390 | OC[C@H]1O[C@@H](c2ncnn2-c2cccc(F)c2)[C@H](O)[C@@H](n2cc(-c3cc(F)c(F)c(F)c3)nn2)[C@H]1O [Example 38]
39 | – | 550 | Cc1ccc(-n2ncnc2[C@@H]2O[C@H](CO)[C@H](O)[C@H](n3cc(-c4cc(F)c(F)c(F)c4)nn3)[C@H]2O)cc1 [Example 39]
40 | – | 1020 | OC[C@H]1O[C@@H](c2ncnn2-c2ccccc2F)[C@H](O)[C@@H](n2cc(-c3cc(F)c(F)c(F)c3)nn2)[C@H]1O [Example 40]
41 | – | 110 | OC[C@H]1O[C@@H](c2ncnn2-c2cc(Cl)cc(Cl)c2)[C@H](O)[C@@H](n2cc(-c3cc(F)c(F)c(F)c3)nn2)[C@H]1O [Example 41]
42 | – | 460 | OC[C@H]1O[C@@H](c2ncnn2-c2ccncc2)[C@H](O)[C@@H](n2cc(-c3cc(F)c(F)c(F)c3)nn2)[C@H]1O [Example 42]
43 | – | 610 | OC[C@H]1O[C@@H](c2ncnn2-c2ccc(Cl)cc2)[C@H](O)[C@@H](n2cc(-c3cc(F)c(F)c(F)c3)nn2)[C@H]1O [Example 43]
44 | – | 4460 | Cn1ncnc1[C@@H]1O[C@H](CO)[C@H](O)[C@H](n2cc(-c3cc(F)c(F)c(F)c3)nn2)[C@H]1O [Example 44]
45 | – | 60 | Cc1nc2ccc(-n3ncnc3[C@@H]3O[C@H](CO)[C@H](O)[C@H](n4cc(-c5cc(F)c(F)c(F)c5)nn4)[C@H]3O)cc2s1 [Example 45]
46 | – | 40 | OC[C@H]1O[C@@H](c2ncnn2-c2ccc3ncsc3c2)[C@H](O)[C@@H](n2cc(-c3cc(F)c(F)c(F)c3)nn2)[C@H]1O [Example 46]
47 | – | 80 | OC[C@H]1O[C@@H](c2ncnn2-c2cc(Cl)ccc2Cl)[C@H](O)[C@@H](n2cc(-c3cc(F)c(F)c(F)c3)nn2)[C@H]1O [Example 47]
48 | – | 110 | Cn1cnc2ccc(-n3ncnc3[C@@H]3O[C@H](CO)[C@H](O)[C@H](n4cc(-c5cc(F)c(F)c(F)c5)nn4)[C@H]3O)cc21 [Example 48]
49 | – | 50 | Cc1nc2cc(C)c(-n3ncnc3[C@@H]3O[C@H](CO)[C@H](O)[C@H](n4cc(-c5cc(F)c(F)c(F)c5)nn4)[C@H]3O)cc2s1 [Example 49]
50 | – | 70 | Cc1nc2cc(Cl)c(-n3ncnc3[C@@H]3O[C@H](CO)[C@H](O)[C@H](n4cc(-c5cc(F)c(F)c(F)c5)nn4)[C@H]3O)cc2s1 [Example 51]
51 | – | 300 | Cc1ncc(-c2cccc(-n3ncnc3[C@@H]3O[C@H](CO)[C@H](O)[C@H](n4cc(-c5cc(F)c(F)c(F)c5)nn4)[C@H]3O)c2)s1 [Example 52]
52 | – | 83 | CO[C@@H]1[C@@H](n2cc(-c3cc(F)c(F)c(F)c3)nn2)[C@@H](O)[C@@H](CO)O[C@H]1c1ncnn1-c1cccc(Cl)c1 [Example 54]
